Values after ≈ are worked out from the molar mass of the structure shown. Where a SMILES comes first, the peptide text is derived from it. The star is where a group is joined. Stearoyl = CCCCCCCCCCCCCCCCCC(=O)*; Palmitoyl = CCCCCCCCCCCCCCCC(=O)*; Myristoyl = CCCCCCCCCCCCCC(=O)*; Lauroyl = CCCCCCCCCCCC(=O)*; Decanoyl = CCCCCCCCCC(=O)*; Octanoyl = CCCCCCCC(=O)*; Hexanoyl = CCCCCC(=O)*
What was measured:
Type in all cases: functional
Escherichia coli = assay: Antimicrobial activity against Escherichia coli ATCC 25922 after 17 to 20 hrs by serial dilution method
Candida albicans = assay: Antimicrobial activity against Candida albicans ATCC 14053 after 17 to 20 hrs by serial dilution method
Staphylococcus aureus = assay: Antimicrobial activity against Staphylococcus aureus ATCC 12600 after 17 to 20 hrs by serial dilution method

Row | Compound | MIC (Escherichia coli) [µg/mL] | MIC (Candida albicans) [µg/mL] | MIC (Staphylococcus aureus) [µg/mL]
1 | CCCCCCCCCC(=O)N[C@@H](CCCCN)C(=O)N[C@@H](CCCCN)C(=O)N[C@@H](Cc1c[nH]c2ccccc12)C(=O)N[C@@H](Cc1c[nH]c2ccccc12)C(N)=O (Decanoyl-KKWW-NH2) | 7.8 (≈ 9.75 µM) | 31.2 (≈ 39 µM) | 3.9 (≈ 4.87 µM)
2 | CCCCCCCCCCCCCCCCCC(=O)N[C@@H](CCCNC(=N)N)C(=O)N[C@H](C(=O)N[C@@H](CCCCN)C(=O)N[C@@H](Cc1c[nH]c2ccccc12)C(=O)N[C@@H](Cc1c[nH]c2ccccc12)C(=O)N[C@@H](CCCCN)C(N)=O)[C@@H](C)CC (Stearoyl-RIKWWK-NH2) | > 31.2 | > 62.5 | 31.2 (≈ 26.4 µM)
3 | CCCCCCCCCC(=O)N[C@@H](CCCCN)C(=O)N[C@@H](CCCCN)C(=O)N[C@@H](Cc1c[nH]c2ccccc12)C(=O)N[C@@H](CCCCN)C(N)=O (Decanoyl-KKWK-NH2) | > 31.2 | > 62.5 | 31.2 (≈ 42 µM)
4 | CCCCCCCCCCCCCCCCCC(=O)N[C@@H](CCCCN)C(=O)N[C@@H](Cc1c[nH]c2ccccc12)C(=O)N[C@@H](Cc1c[nH]c2ccccc12)C(=O)N[C@@H](CCCCN)C(N)=O (Stearoyl-KWWK-NH2) | > 31.2 | > 62.5 | > 31.2
5 | CCCCCCCCCCCCCC(=O)N[C@@H](CCCCN)C(=O)N[C@@H](CCCCN)C(=O)N[C@@H](Cc1c[nH]c2ccccc12)C(=O)N[C@@H](CCCCN)C(N)=O (Myristoyl-KKWK-NH2) | 7.8 (≈ 9.77 µM) | > 62.5 | 3.9 (≈ 4.89 µM)
6 | CCCCCCCCCCCCCCCCCC(=O)N[C@@H](CCCCN)C(=O)N[C@H](C(=O)N[C@@H](Cc1c[nH]c2ccccc12)C(=O)N[C@@H](Cc1c[nH]c2ccccc12)C(=O)N[C@@H](CCCCN)C(N)=O)[C@@H](C)CC (Stearoyl-KIWWK-NH2) | > 31.2 | > 62.5 | > 31.2
7 | CCCCCCCCCCCCCCCCCC(=O)N[C@@H](CCCCN)C(=O)N[C@@H](CCCCN)C(=O)N[C@H](C(=O)N[C@@H](CCCNC(=N)N)C(=O)N[C@@H](Cc1c[nH]c2ccccc12)C(=O)N[C@@H](CCCNC(=N)N)C(N)=O)[C@@H](C)CC (Stearoyl-KKIRWR-NH2) | > 31.2 | > 62.5 | 15.6 (≈ 13.5 µM)
8 | CCCCCCCCCCCCCC(=O)N[C@@H](CCCCN)C(=O)N[C@@H](CCCNC(=N)N)C(=O)N[C@H](C(=O)N[C@@H](Cc1c[nH]c2ccccc12)C(=O)N[C@@H](Cc1c[nH]c2ccccc12)C(=O)N[C@@H](CCCNC(=N)N)C(N)=O)[C@@H](C)CC (Myristoyl-KRIWWR-NH2) | 15.6 (≈ 13.5 µM) | > 62.5 | 7.8 (≈ 6.76 µM)
9 | CCCCCCCCCCCCCCCCCC(=O)N[C@@H](CCCNC(=N)N)C(=O)N[C@@H](Cc1c[nH]c2ccccc12)C(=O)N[C@@H](Cc1c[nH]c2ccccc12)C(=O)N[C@@H](CCCNC(=N)N)C(N)=O (Stearoyl-RWWR-NH2) | > 31.2 | > 62.5 | 31.2 (≈ 32.2 µM)
10 | CCCCCCCCCCCCCCCC(=O)N[C@@H](CCCNC(=N)N)C(=O)N[C@@H](CCCCN)C(=O)N[C@@H](Cc1c[nH]c2ccccc12)C(=O)N[C@@H](Cc1c[nH]c2ccccc12)C(=O)N[C@@H](CCCCN)C(N)=O (Palmitoyl-RKWWK-NH2) | 31.2 (≈ 30 µM) |  | 31.2 (≈ 30 µM)
11 | CCCCCCCCCCCC(=O)N[C@@H](CCCNC(=N)N)C(=O)N[C@@H](CCCCN)C(=O)N[C@@H](Cc1c[nH]c2ccccc12)C(=O)N[C@@H](Cc1c[nH]c2ccccc12)C(=O)N[C@@H](CCCCN)C(N)=O (Lauroyl-RKWWK-NH2) | 7.8 (≈ 7.92 µM) |  | 7.8 (≈ 7.92 µM)
12 | CCCCCCCC(=O)N[C@@H](CCCNC(=N)N)C(=O)N[C@@H](CCCCN)C(=O)N[C@@H](Cc1c[nH]c2ccccc12)C(=O)N[C@@H](Cc1c[nH]c2ccccc12)C(=O)N[C@@H](CCCCN)C(N)=O (Octanoyl-RKWWK-NH2) | 62.5 (≈ 67.3 µM) |  | 15.6 (≈ 16.8 µM)
13 | CCCCCC(=O)N[C@@H](CCCNC(=N)N)C(=O)N[C@@H](CCCCN)C(=O)N[C@@H](Cc1c[nH]c2ccccc12)C(=O)N[C@@H](Cc1c[nH]c2ccccc12)C(=O)N[C@@H](CCCCN)C(N)=O (Hexanoyl-RKWWK-NH2) | > 62.5 |  | 31.2 (≈ 34.7 µM)

Source: ChEMBL document CHEMBL3286360, “Tuning the antimicrobial pharmacophore to enable discovery of short lipopeptides with multiple modes of action” (Eur J Med Chem, 2014)
